Tests used:
H358 cells = test: Antiproliferative activity against H358 cells (Cell Titer Glow, ultra-low attachment plate); type: cell-based; details: Homo sapiens, NCI-H358, 72 h, three days after addition of compound
Procedure: 2500 H358 cells were seeded in a 96-well ultra-low attachment plate (corning, 7007). After one day of growth, a serially diluted compound (a maximum concentration of 5 μM, 5-fold dilution, a total of five doses) was added. Three days after the addition of the compound, Cell Titer Glow (Promega, G9681) was added to evaluate pellet growth, and the IC50 value was calculated.

pERK level in H358 cells = test: pERK and ERK protein content assay in H358 cells (ELISA); type: cell-based; details: Homo sapiens, NCI-H358, pERK/ERK ratio vs DMSO group, compound 1 μM, 24 h, read-out: Inhibition rate (%)
Procedure, shortened: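 H358 cells grown one day, then treated 24 h with compound at 1 μM. pERK and ERK in lysates measured by ELISA; pERK/ERK ratio expressed as percent inhibition versus DMSO.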

[1] = test system: human pancreatic cancer Mia PaCa-2 xenograft tumors; test: Antitumor activity in mice, Mia PaCa-2 xenograft; type: in vivo; details: Mia PaCa-2 xenograft in nude mice
Procedure: Human pancreatic cancer Mia PaCa-2 cells were cultured conventionally in 1640 medium containing 10% fetal bovine serum in a 37° C./5% CO2 incubator. After being subcultured, the cells were collected when they reached the desired amount. 1×10^7 Mia PaCa-2 cells were injected into the left dorsal side of each nude mouse, and the animals were randomly grouped for administration after tumors grew to 150 mm^3. The groups were as follows: 1) solvent control group, 8 mice; 2) compound 6 group, compound 14 group, compound 28 group, compound 44 group, compound 60 group, compound 103 group and control drug B (Example 35 in WO2018/143315), 8 mice in each group. The mice in the solvent control group was intragastrically administered with 0.5% CMC-Na once a day; and the mice in the compound groups were intragastrically administered with 0.5% CMC-Na suspension once a day. On Tuesday and Thursday each week, tumor volumes and body weight of the mice were measured, and the nude mice were sacrificed on day 21 during the treatment period.

## C=CC(=O)N1CC2(CCN(c3nc(N4CC(N5CC6(CC6)C5)C4)nc4c(OCC(F)(F)F)c(-c5c(F)ccc6[nH]ncc56)c(C5CC5)cc34)CC2)C1 [Compound 103]
H358 cells
  IC50: < 0.3 µM
pERK level in H358 cells
  inhibition at 1 µM: > 90%
[1]; 10 mg/kg, qd*21, intragastric
  Anti-tumor effect (regression): 39% regression
[1]; 10 mg/kg/day, 21 days
  in vivo activity compared with control drug B: stronger in vivo activity than the control drug B

Reference: patent US12391692B2, “Spiro ring-containing quinazoline compound” (WIGEN BIOMEDICINE TECHNOLOGY (SHANGHAI) CO., LTD., priority 2020, dated 2025)
